Here are results for 2 compounds from US10836763B2, “5 to 7 membered heterocyclic amides as JAK inhibitors” (priority 2018, dated 2020).

Like-named read-outs stand apart in the source and are kept apart here.

Data set [1] has as its system IL-13 induced pSTAT6 in lung tissue. The data set can be described thus: Murine model of IL-13 induced pSTAT6 induction in lung tissue. The note with it: Balb/c mice, 1 mg/mL, 50 μL oral aspiration; IL-13 challenge 4 hours after compound; lung homogenate. The format is in vivo, mouse. As for the experimental part:
(§1) Assay 3: Murine (Mouse) Model of IL-13 Induced pSTAT6 Induction in Lung Tissue
IL-13 binds to cell surface receptors activating members of the Janus family of kinases (JAK) which then phosphorylate STAT6 and subsequently activates further transcription pathways. In the described model, a dose of IL-13 was delivered locally into the lungs of mice to induce the phosphorylation of STAT6 (pSTAT6) which is then measured as the endpoint.
Activity in the model is evidenced by a decrease in the level of pSTAT6 present in the lungs of treated animals at 5 hours compared to the vehicle treated, IL-13 challenged control animals. The difference between the control animals which were vehicle-treated, IL-13 challenged and the control animals which were vehicle-treated, vehicle challenged dictated the 0% and 100% inhibitory effect, respectively, in any given experiment.

Another data set addresses JAK3 (Homo sapiens (Human), UniProt P52333). In kind it is biochemical. The procedure: (§2) Assay 1: Biochemical JAK Kinase Assays
(§3) A panel of four LanthaScreen JAK biochemical assays (JAK1, 2, 3 and Tyk2) were carried in a common kinase reaction buffer (50 mM HEPES, pH 7.5, 0.01% Brij-35, 10 mM MgCl2, and 1 mM EGTA). Recombinant GST-tagged JAK enzymes and a GFP-tagged STAT1 peptide substrate were obtained from Life Technologies.
(§4) Serially diluted compounds were pre-incubated with each of the four JAK enzymes and the substrate in white 384-well microplates (Corning) at ambient temperature for 1 h. ATP was subsequently added to initiate the kinase reactions in 10 μL total volume, with 1% DMSO. […] Kinase reactions were allowed to proceed for 1 hour at ambient temperature before a 10 μL preparation of EDTA (10 mM final concentration) and Tb-anti-pSTAT1 (pTyr701) antibody (Life Technologies, 2 nM final concentration) in TR-FRET dilution buffer (Life Technologies) was added. The plates were allowed to incubate at ambient temperature for 1 h before being read on the EnVision reader (Perkin Elmer). Emission ratio signals (520 nm/495 nm) were recorded and utilized to calculate the percent inhibition values based on DMSO and background controls.
(§5) For dose-response analysis, percent inhibition data were plotted vs. compound concentrations, and IC50 values were determined from a 4-parameter robust fit model with the Prism software (GraphPad Software). Results were expressed as pIC50 (negative logarithm of IC50) and subsequently converted to pKi (negative logarithm of dissociation constant, Ki) using the Cheng-Prusoff equation.

Data set [2] concerns IFNγ stimulated STAT1 phosphorylation in CD14+ monocytes. The data set can be described thus: Cellular JAK potency assay: inhibition of IFNγ-induced pSTAT1. The format is cell-based. The note with it: Homo sapiens, Monocyte, 0.5 h, read-out: pIC50, inhibition of IFNγ-induced pSTAT1 (converted). The source says: Data are expressed as pIC50 (negative decadic logarithm IC50) values.

A short description of the next data set: Lung S9 metabolism. In kind it is in vitro ADME, human. The note with it: for Compound Remaining at 60 min (%) / microsomal CLint at 1 µM: human lung S9, 1 μM compound, 1 mg/mL S9 protein, NADPH and PAPS; for microsomal CLint at 1 µM: lung S9 fraction, pH 7.4, read-out: Clearance; for Sulfate Appearance: qualitative, O-sulfate metabolite peak in human lung S9. As for the experimental part: Assay 5: Lung S9 Metabolism […] Lung S9 fractions from human (lot 1410245) were purchased from XenoTech LLC (Lenexa, Kans.). NADPH (Sigma Aldrich, N1630) and 3-phosphoadenosine 5-phosphosulfate (PAPS) (Sigma Aldrich, A1651) were purchased from Sigma Aldrich (St. Louis, Mo.). Acetonitrile and water were obtained from VWR (Radnor, Pa.) and were of HPLC grade or better. Raloxifene and formic acid was purchased from Sigma Aldrich (St. Louis, Mo.). Lung S9 incubations were performed in a water bath at 37° C. in a 96-well polypropylene plate. […] All samples were centrifuged at 2250 g for 10 minutes at 5° C. Supernatant (50 μL) was taken from the centrifuged samples and diluted into 100 μL HPLC water containing internal standard. […] Mobile Phase A consisted of Water+0.2% formic acid and Mobile Phase B consisted of acetonitrile+0.2% formic acid. Peak integration was accomplished using Gubbs GMSU software (Gubbs Inc., Alpharetta, Ga.). For each sample, peak area ratios were calculated by dividing the analyte peak area by the internal standard peak area. […] Determination of sulfate metabolite formation was made qualitatively by observation of early-eluting peak in the parent ion channel which, based on historical internal data, corresponded to the O-sulfate metabolite of each parent compound.

A short description of data set [3]: Lung and plasma drug concentration in the murine IL-13 pSTAT6 model. In kind it is in vivo. The following applies: mouse, other: oral aspiration, 50 µg/mouse; for Kp at 5 h: Balb/c, lung ng/g to plasma ng/mL at 5 hours, mice, oral aspiration, read-out: Lung to Plasma ratio at 5 hr; for concentration at 5 h: Balb/c mice, 1 mg/mL, 50 μL oral aspiration, 5 hr post dose. As for the experimental part: as §1
Adult Balb/c mice from Harlan were used in the assay. […] Animals were placed in lateral recumbency post dose and monitored for full recovery from anesthesia before being returned to their home cage. Four hours later, animals were once again briefly anesthetized and challenged with either vehicle or IL-13 (0.03 μg total dose delivered, 50 μL total volume) via oral aspiration before being monitored for recovery from anesthesia and returned to their home cage. One hour after vehicle or IL-13 administration, whole blood and lungs were collected for both pSTAT6 detection in lung homogenates using a Perkin Elmer AlphaLISA® SureFire® Ultra™ HV p-STAT6 (Tyr641) assay kit and for total drug concentration analysis in both lung and plasma. Blood samples were centrifuged (Eppendorf centrifuge, 5804R) for 4 minutes at approximately 12,000 rpm at 4° C. to collect plasma. […] Plasma and lung levels of test compound were determined by LC-MS analysis against analytical standards constructed into a standard curve in the test matrix. A lung to plasma ratio was determined as the ratio of the lung concentration in ng/g to the plasma concentration in ng/mL at 5 hours.

The target in a further data set is Tyk2 (Homo sapiens (Human), UniProt P29597). The data set can be described thus: Biochemical JAK kinase assay (LanthaScreen), Tyk2. As for the experimental part:
as §2, §3, §4, §5
In general terms: In TR-FRET formats the signal depends on donor and acceptor labels being close together.

The mark [4] stands for this setting: lung, read-out: Lung Concentration (ng/g) at 5 hr.
[5] abbreviates: plasma, read-out: Plasma Concentration (ng/mL) at 5 hr.

Chain of JAK3 (P52333 whole entry): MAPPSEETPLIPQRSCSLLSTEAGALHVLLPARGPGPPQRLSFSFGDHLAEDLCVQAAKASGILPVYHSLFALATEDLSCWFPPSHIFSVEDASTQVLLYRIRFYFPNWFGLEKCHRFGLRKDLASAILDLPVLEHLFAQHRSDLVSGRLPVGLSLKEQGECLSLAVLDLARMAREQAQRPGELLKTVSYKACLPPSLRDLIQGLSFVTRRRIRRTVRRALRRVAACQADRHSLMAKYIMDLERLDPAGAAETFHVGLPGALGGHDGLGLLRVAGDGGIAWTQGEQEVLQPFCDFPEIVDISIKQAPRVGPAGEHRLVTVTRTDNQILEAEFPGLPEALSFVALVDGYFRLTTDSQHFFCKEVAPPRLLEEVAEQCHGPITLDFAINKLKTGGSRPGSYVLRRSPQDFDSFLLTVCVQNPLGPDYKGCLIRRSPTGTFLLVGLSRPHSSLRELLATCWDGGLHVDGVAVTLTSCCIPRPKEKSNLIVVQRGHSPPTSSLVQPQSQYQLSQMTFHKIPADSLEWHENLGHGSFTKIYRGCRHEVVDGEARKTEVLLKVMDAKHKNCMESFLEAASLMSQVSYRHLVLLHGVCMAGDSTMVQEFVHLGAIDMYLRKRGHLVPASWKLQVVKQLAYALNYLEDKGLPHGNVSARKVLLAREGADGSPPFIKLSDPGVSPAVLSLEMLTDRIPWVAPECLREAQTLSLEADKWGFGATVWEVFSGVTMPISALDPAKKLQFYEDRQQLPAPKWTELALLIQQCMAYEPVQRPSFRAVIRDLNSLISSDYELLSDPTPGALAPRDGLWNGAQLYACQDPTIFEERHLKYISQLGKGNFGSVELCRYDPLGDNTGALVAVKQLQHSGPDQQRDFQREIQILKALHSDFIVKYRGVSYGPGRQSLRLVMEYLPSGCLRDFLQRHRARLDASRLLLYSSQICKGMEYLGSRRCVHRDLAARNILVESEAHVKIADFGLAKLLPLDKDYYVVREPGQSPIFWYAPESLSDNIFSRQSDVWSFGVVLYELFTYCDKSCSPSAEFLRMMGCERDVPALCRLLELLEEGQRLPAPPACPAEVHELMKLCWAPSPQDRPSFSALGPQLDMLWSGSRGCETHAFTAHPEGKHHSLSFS
Chain of Tyk2 (P29597 whole entry): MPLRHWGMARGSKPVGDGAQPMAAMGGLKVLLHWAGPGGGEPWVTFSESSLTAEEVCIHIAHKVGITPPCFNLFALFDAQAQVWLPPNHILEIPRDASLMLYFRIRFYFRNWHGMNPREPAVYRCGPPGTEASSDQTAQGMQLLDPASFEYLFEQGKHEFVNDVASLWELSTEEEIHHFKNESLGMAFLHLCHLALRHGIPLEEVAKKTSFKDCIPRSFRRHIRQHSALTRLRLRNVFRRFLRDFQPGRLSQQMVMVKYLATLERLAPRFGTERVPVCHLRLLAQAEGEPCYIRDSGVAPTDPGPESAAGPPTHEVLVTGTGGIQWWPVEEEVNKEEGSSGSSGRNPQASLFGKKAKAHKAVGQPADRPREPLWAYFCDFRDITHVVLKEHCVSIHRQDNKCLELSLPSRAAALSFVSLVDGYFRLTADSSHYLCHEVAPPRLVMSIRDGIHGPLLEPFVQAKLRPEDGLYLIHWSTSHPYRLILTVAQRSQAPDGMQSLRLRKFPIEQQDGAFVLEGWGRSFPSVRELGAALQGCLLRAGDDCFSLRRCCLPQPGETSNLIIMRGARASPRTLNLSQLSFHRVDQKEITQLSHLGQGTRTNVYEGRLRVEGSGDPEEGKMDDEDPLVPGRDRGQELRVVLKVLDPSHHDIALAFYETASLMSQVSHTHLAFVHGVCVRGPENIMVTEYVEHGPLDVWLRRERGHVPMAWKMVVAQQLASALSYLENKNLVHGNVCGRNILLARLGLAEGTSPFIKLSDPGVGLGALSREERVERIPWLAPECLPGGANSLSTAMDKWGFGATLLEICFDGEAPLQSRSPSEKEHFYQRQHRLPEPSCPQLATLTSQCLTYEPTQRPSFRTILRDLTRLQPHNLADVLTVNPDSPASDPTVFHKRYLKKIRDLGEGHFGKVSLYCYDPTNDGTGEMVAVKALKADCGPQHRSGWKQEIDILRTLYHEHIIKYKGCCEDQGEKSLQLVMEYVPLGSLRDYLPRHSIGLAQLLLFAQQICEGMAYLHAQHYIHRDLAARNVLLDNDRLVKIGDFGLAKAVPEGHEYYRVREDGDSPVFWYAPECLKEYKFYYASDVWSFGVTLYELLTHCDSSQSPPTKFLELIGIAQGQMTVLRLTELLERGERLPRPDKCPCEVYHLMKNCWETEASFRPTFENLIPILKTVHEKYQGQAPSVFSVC

With `CCCN1Cc2[nH]c(-c3n[nH]c4cc(-c5ccc(O)cc5CC)ccc34)nc2C[C@H]1C(=O)N1CCN(CCO)CC1` [Compound 1, (S)-(2-(6-(2-ethyl-4-hydroxyphenyl)-1H-indazol-3-yl)-5-propyl-4,5,6,7-tetrahydro-3H-imidazo[4,5-c]pyridin-6-yl)(4-(2-hydroxyethyl)piperazin-1-yl)methanone], in data set [1], the “pSTAT6 inhibition at 5 hours” value turned out to be 67%. Also, the “JAK3 PKi” value on JAK3 (ATP at Km 1.6 μM, pIC50 converted with Cheng-Prusoff) came to 9.8. The IC50 in data set [2] (CD14+ monocytes, IFNγ 0.6 ng/mL, 30 min, flow cytometry) was 31.6 nM. Besides, in “Lung S9 metabolism”, the “Compound Remaining at 60 min (%)” value is on record as 78%, the microsomal CLint at 1 µM stood at 4.2 µL/min/mg and the “Sulfate Appearance” value is reported as “Yes”. Besides, the Kp at 5 h in data set [3] turned out to be 1260. Besides, the concentration at 5 h in data set [3] (setting [4]) was 13000 ± 5720 ng/g. Further, in data set [3] (setting [5]), the concentration at 5 h amounted to 10.3 ± 3.9 ng/mL. The “Tyk2 pKi” value on Tyk2 (ATP at Km 10 μM, pIC50 converted with Cheng-Prusoff) was 9.0.
As to `CCc1cc(O)ccc1-c1ccc2c(-c3nc4c([nH]3)CN(C(C)C)[C@H](C(=O)N3CCCN(C)CC3)C4)n[nH]c2c1` [Compound 4, (S)-(2-(6-(2-ethyl-4-hydroxyphenyl)-1H-indazol-3-yl)-5-isopropyl-4,5,6,7-tetrahydro-3H-imidazo[4,5-c]pyridin-6-yl)(4-methyl-1,4-diazepan-1-yl)methanone], the “pSTAT6 inhibition at 5 hours” value in data set [1] is 67%. The “JAK3 PKi” value at JAK3 stood at 10.1. Further, in data set [2], the IC50 is 50.1 nM. For the same compound, in “Lung S9 metabolism”, the “Compound Remaining at 60 min (%)” value is recorded as 88%, the microsomal CLint at 1 µM came out at 2.1 µL/min/mg and the “Sulfate Appearance” value is listed as “Yes”. The Kp at 5 h in data set [3] was determined as 788. In data set [3] (setting [4]), the concentration at 5 h was 17400 ± 6620 ng/g. Also, in data set [3] (setting [5]), the concentration at 5 h was found to be 22 ± 23 ng/mL. Further, at Tyk2, the “Tyk2 pKi” value came out at 9.0.
